Like-named read-outs stand apart in the source and are kept apart here.
Columns and labels:
[1] = test system: 2019 novel coronavirus (2019-nCov); conditions: stated for positive control; read-out: EC50, inhibition of 2019-nCoV virus replication (positive compound CQ); cited from earlier work
[2] = biological target: human cathepsin L (Homo sapiens, UniProt P07711); assay: Inhibitory activity against human cathepsin L (FRET, Z-Phe-Arg-AMC substrate); assay type: biochemical; conditions: pH 5.5, 25° C.
Chain of human cathepsin L (P07711 114-333): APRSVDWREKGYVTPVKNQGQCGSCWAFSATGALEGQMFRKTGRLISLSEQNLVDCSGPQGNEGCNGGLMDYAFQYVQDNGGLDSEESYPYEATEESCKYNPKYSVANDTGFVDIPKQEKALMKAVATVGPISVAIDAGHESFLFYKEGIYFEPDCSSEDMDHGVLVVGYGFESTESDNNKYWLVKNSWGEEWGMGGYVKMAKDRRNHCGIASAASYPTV
Procedure: To determine the inhibitory activity of the compound against human cathepsin L (CatL): the enzyme level inhibitory activity against cathepsin L was determined by fluorescence resonance energy transfer (FRET) technique. In a 96-well plate, 10 μL buffer (50 mM CH3COONa, pH 5.5, 1 mM DTT, 2 mM EDTA) was added to each well, while 0.2 μL of compound (final concentrations were 100 nM, 10 nM, 1 nM, 0.1 nM and 0.01 nM, respectively) and 10 μL cathepsin L were added, and incubated at 25° C. for 15 min. Then 10 μL fluorescent substrate (Z-Phe-Arg-AMC, final concentration was 20 μM) diluted with buffer was added. The fluorescence parameters were determined by Tecan Infinite 200pro fluorescence spectrophotometer. The excitation wavelength and emission wavelength were 360 nm and 465 nm respectively, kept at 25° C., and the data were read after 30 min. A negative control was used, in which no compound was added to the control, and the rest was the same.

[3] = test system: 2019 novel coronavirus (2019-nCov); assay: Inhibitory activity on replication of 2019 novel coronavirus (cytopathic effect, MTS, RD cells); assay type: cell-based; conditions: for virus inhibitory activity (in words): CQ as positive control, different concentration gradients; for EC50: Severe acute respiratory syndrome coronavirus 2, RD, read-out: EC50, inhibition of 2019-nCoV virus replication
[4] = biological target: T1, 2019-nCoV 3CL protease (Severe acute respiratory syndrome coronavirus 2, UniProt P0DTD1); assay: Inhibitory activity against 3CL protease of 2019 novel coronavirus (FRET); assay type: biochemical
T1 construct: against 3CL protease of 2019 novel coronavirus (2019-nCoV 3CL^pro)
Procedure: To determine the inhibitory activity of the compound against 3CL protease of 2019 novel coronavirus (2019-nCoV 3CL^pro): the enzyme level inhibitory activity of inhibitors against 3CL protease was determined by fluorescence resonance energy transfer (FRET) technology. In a 96-well plate, 27.5 μL of buffer (20 mM Tris, 100 mM NaCl, 1 mM EDTA, pH 7.4) was added to each well, 2.5 μL compounds ([…], respectively) and 5 μL […] (final concentration was 3 μM) were added at the same time. Incubated at 37° C. for 15 min. Then 15 μL fluorescent substrate diluted with buffer (final concentration was 20 μM) was added. The fluorescence parameters were determined by Ge n5 fluorescence spectrophotometer. The excitation wavelength and emission wavelength were 340 nm and 490 nm respectively, kept at 37° C., and the data were read after 10 min. A negative control was used, in which no compound was added to the control, and the rest was the same.

[5] = Toxicity test in SD rats with repeated intravenous administration; assay type: in vivo
Source text: The purpose of this experiment is to observe the potential toxicity of SD rats after intravenous DC406009 for 7 consecutive days and to determine the possible toxic target organs. To provide non-toxic dose and/or toxic dose for the subsequent toxicity test design and clinical trial protocol design. To assess the level of drug exposure in vivo, a toxicokinetic evaluation is accompanied.
36 SD rats were divided into 8 groups (3 in toxicity test group/gender/group, a total of 5 groups; 1 in toxic satellite group/gender/group, 3 groups), intravenous injection of solvent (5% DMSO/5% EtOH/40% PEG300/50% NaCl), 0.9% sodium chloride injection and DC406009 (5, 15, 30 mg/kg/day), once a day for 7 consecutive days, all animals were euthanized on Day 8. During the test, the following indicators were evaluated: toxicology (only samples were collected), clinical observation, body weight, food consumption, clinical pathology (hematology, hemagglutination, plasma biochemistry) and anatomical macroscopic morphological observation.

For `CCN(CC)CCCC(C)Nc1ccnc2cc(Cl)ccc12` (stereo not drawn) [CQ], which EC50 [1] is on record?
The EC50 was 1130 nM.

Which IC50 [2] does the source give for `O=C(NCc1ccccc1)C(=O)[C@H](C[C@@H]1CCCNC1=O)NC(=O)[C@H](CC1CCCCC1)NC(=O)c1cc2ccccc2[nH]1` [Example A5, N—((S)-1-(((S)-4-(benzylamino)-3,4-dione-1-((S)-2-oxopiperidin-3-yl)but-2-yl)amino)-3-cyclohexyl-1-oxopropan-2-yl)-1H-indole-2-carboxamide] here?
The IC50 was 0.45 ± 0.02 nM.

Which results are given for `O=C(NCc1ccccc1)C(=O)[C@H](C[C@@H]1CCCNC1=O)NC(=O)[C@H](CC1CCCCC1)NC(=O)c1cc2ccccc2o1` [Example A13, N—((S)-1-(((S)-4-(benzylamino)-3,4-dione-1-((S)-2-oxopiperidin-3-yl)but-2-yl)amino)-3-cyclohexyl-1-oxopropan-2-yl)-benzofuran-2-carboxamide]?
virus inhibitory activity (in words) [3]: excellent virus inhibitory activity; EC50 [3]: 9240 nM; IC50 [2]: 1.36 ± 0.04 nM; IC50 ([4]; FRET, 37° C., substrate 20 μM): 2.4 µM

With `O=C(NCc1ccccc1)C(=O)[C@H](C[C@@H]1CCCNC1=O)NC(=O)[C@H](Cc1cccc(F)c1)NC(=O)c1cc2ccccc2o1` [Example A284] as the compound, how does the IC50 [2] read?
The IC50 was 0.45 ± 0.01 nM.

For `O=C(NCc1ccccc1)C(=O)[C@H](C[C@@H]1CCCNC1=O)NC(=O)[C@H](Cc1ccc(F)cc1)NC(=O)c1cc2ccccc2o1` [Example A289], which “virus inhibitory activity (in words)” value [3] is on record?
The value was “excellent virus inhibitory activity”.

What about the “virus inhibitory activity (in words)” value ([3]; listed as 6009) of the same compound?
The value was “better than that of positive control CQ”.

What about the EC50 [3] of the same compound?
Its EC50 is 296 nM.

And the IC50 [2]?
Its IC50 is 0.66 ± 0.008 nM.

And the inhibition at 1 µM ([4]; compound 1 uM, read-out: 1 uM inhibition rate)?
Its inhibition at 1 µM is 13.5%.

And the inhibition at 10 µM ([4]; compound 10 uM, read-out: 10 uM inhibition rate)?
The inhibition at 10 µM was 40.8%.

What about the “tolerability (in words)” value ([5]; SD rats, 5, 15, 30 mg/kg/day intravenously once a day for 7 consecutive days) of the same compound?
Its value is “animals can tolerate”.

And the MTD at 7 days ([5]; both sexes, SD, rat, in vivo, iv)?
The MTD at 7 days was > 30 mg/kg/day.

Which IC50 [2] does the source give for `O=C(NCc1ccccc1)C(=O)[C@H](C[C@@H]1CCCNC1=O)NC(=O)[C@H](Cc1ccc(F)c(F)c1)NC(=O)c1cc2ccccc2o1` [Example A290] here?
Its IC50 is 0.47 ± 0.06 nM.

Which IC50 [2] does the source give for `O=C(NC1CC1)C(=O)[C@H](C[C@@H]1CCCNC1=O)NC(=O)[C@H](CC1CCCCC1)NC(=O)c1cc2ccccc2o1` [Example A309, N—((S)-1-(((S)-4-(cyclopropylamino)-3,4-dione-1-((S)-2-oxopiperidin-3-yl)but-2-yl)amino)-3-cyclohexyl-1-oxopropan-2-yl)-benzofuran-2-carboxamide] here?
Its IC50 is 0.63 ± 0.08 nM.

With `O=C(NC1CC1)C(=O)[C@H](C[C@@H]1CCCNC1=O)NC(=O)[C@H](Cc1ccc(F)cc1)NC(=O)c1cc2ccccc2o1` [Example A310, N—((S)-1-(((S)-4-(cyclopropylamino)-3,4-dione-1-((S)-2-oxopiperidin-3-yl)but-2-yl)amino)-3-(4-fluorophenyl)-1-oxopropan-2-yl)-benzofuran-2-carboxamide] as the compound, how does the IC50 [2] read?
The IC50 was 0.57 ± 0.01 nM.

Reference: patent publication US12636275B2, “Pharmaceutical use of ketoamide-based compound” (Shanghai Institute of Materia Medica, Chinese Academy of …, priority 2020, dated 2026)
